According to patent US8222260B2, “Substituted 6-anilinopurine derivatives as inhibitors of cytokinin oxidase/dehydrogenase and preparations containing these derivatives” (Univerzita Palackego V Olomouci, priority 2007, dated 2012):

What was measured:
[1] = system: NIH-3T3 (fibroblasts); assay: Calcein AM cytotoxicity assay; type: cell-based, Mouse; details: Mus musculus, NIH3T3, 72 hours
Summary of the method: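 Cells seeded at 2.500-30.000 per well, pre-incubated 24 hours, then exposed to compound (usually six 3-fold dilutions, triplicates) for 72 hours at 37° C, 5% CO2; NIH-3T3 grown in DMEM with 10% fetal calf serum. Calcein AM added at 1 μg/ml final, fluorescence read after 1 hour. GI calculated as blank-corrected fluorescence relative to untreated control.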

[2] = system: osteosarcoma cell line HOS; assay: Calcein AM cytotoxicity assay; type: cell-based, human; details: Homo sapiens, 72 hours
Summary of the method: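 Cells seeded at 2.500-30.000 per well, pre-incubated 24 h, then exposed 72 h at 37 °C to six 3-fold dilutions (top 166.6 μM), in triplicate. Calcein AM added to 1 μg/ml for 1 h; fluorescence gives growth inhibition, GI50 taken from dose-response curves.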

[3] = system: breast carcinoma cell line MCF-7; assay: Calcein AM cytotoxicity assay; type: cell-based, human; details: Homo sapiens, MCF7, 72 hours
[4] = system: Amaranthus caudatus cotyledon/hypocotyl explants; assay: Amaranthus bioassay (betacyanin content); type: cell-based, Amaranthus caudatus var. atropurpurea; details: at the concentration with highest activity, relative to 10^−5 M kinetin
Summary of the method: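 Etiolated A. caudatus cotyledon/hypocotyl explants (72 h seedlings, roots removed) incubated 48 h at 25 °C in darkness on medium with phosphate buffer pH 6.8, tyrosine and test compound. Betacyanin extracted in acetic acid, quantified as A537−A620.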

Compound | GI50 [1] [µM] | GI50 [2] [µM] | GI50 [3] [µM] | Activity (%) [10^−5 mol · l^−1 K = 100%] [4] [%]
c1coc(CNc2ncnc3nc[nH]c23)c1 [Kinetin, 6-furfurylaminopurine, reference compound] | > 167 | > 167 | > 167 | 100
Fc1cccc(Nc2nc(S)nc3[nH]cnc23)c1 [Compound 83] | > 167 | > 167 | > 167 | 133.5
Clc1nc(Nc2ccccc2)c2[nH]cnc2n1 [Compound 1, 2-Chloro-6-anilinopurine] | > 167 | > 167 | > 167 | 
Fc1cccc(Nc2nc(Cl)nc3nc[nH]c23)c1 [Compound 6, 2-Chloro-6-(3-fluoroanilino)purine] | > 167 | > 167 | > 167 | 120
COc1cccc(Nc2nc(Cl)nc3nc[nH]c23)c1 [Compound 12, 2-Chloro-6-(3-methoxyanilino)purine] | > 167 | > 167 | > 167 | 132.3
Oc1cccc(Nc2nc(F)nc3[nH]cnc23)c1 [Compound 48] | > 167 | > 167 | > 167 | 100.3
Nc1nc(Nc2cccc(Cl)c2)c2nc[nH]c2n1 [Compound 66] | > 167 | > 167 | > 167 | 122
Fc1nc(Nc2ccccc2)c2nc[nH]c2n1 [Compound 40] | > 167 | > 167 | > 167 | 107
Fc1nc(Nc2cccc(Cl)c2)c2nc[nH]c2n1 [Compound 42] | > 167 | > 167 | > 167 | 121
COc1cccc(Nc2nc(F)nc3nc[nH]c23)c1 [Compound 51, 2-Fluoro-6-(3-methoxyanilino)purine] | > 167 | > 167 | > 167 | 117.2
Oc1cccc(Nc2nc(Cl)nc3nc[nH]c23)c1 [Compound 9, 2-Chloro-6-(3-hydroxyanilino)purine] | > 167 | > 167 | > 167 | 115.4
Clc1cccc(Nc2nc(Cl)nc3nc[nH]c23)c1 [Compound 3, 2-Chloro-6-(3-chloroanilino)purine] | > 167 | > 167 | > 167 | 166
Clc1ccc(Nc2nc(Cl)nc3[nH]cnc23)cc1 [Compound 4] | > 167 | > 167 | > 167 | 107
Nc1nc(Nc2cccc(O)c2)c2nc[nH]c2n1 [Compound 72] | > 167 | > 167 | > 167 | 119.8
